Legend:
EZH2 = EZH2 (Homo sapiens, UniProt Q15910); test: EZH2 Assay (3H SAM methyl transfer, rPRC2, FlashPlate); format: biochemical; conditions: rPRC2, biotinylated oligonucleosomes, 0.2 μM 3H SAM, 2 nM EZH2
Description: (§1) EZH2 Assay: Assays were carried out by mixing rPRC2 together with biotinylated oligonucleosome substrates in the presence of the radio-labeled enzyme co-factor, S-adenosyl-L-methionine (^3H SAM) (Perkin Elmer) and monitoring the enzymatically mediated transfer of tritiated methyl groups from ^3H SAM to histone lysine residues. The amount of resulting tritiated methyl histone product was measured by first capturing the biotinylated oligonucleosomes in streptavidin (SAV) coated FlashPlates (Perkin Elmer), followed by a wash step to remove unreacted ^3H SAM, and then counting on a TopCount NXT 384 well plate scintillation counter (Perkin Elmer). The final assay conditions for EZH2 were as follows: 50 mM Tris Buffer pH 8.5, 1 mM DTT, 69 μM Brij-35 detergent, 5.0 mM MgCl2, 0.1 mg/mL BSA, 0.2 μM ^3H SAM, 0.2 μM biotinylated oligonucleosomes, 3.6 μM H3K27me3 peptide and 2 nM EZH2.
(§2) Compound IC50 measurements were obtained as follows: Compounds were first dissolved in 100% DMSO as 10 mM stock solutions. Ten point dose response curves were generated by dispensing varying amounts of the 10 mM compound solution in 10 wells of the 384 well plate (Echo; Labcyte), pure DMSO was then used to backfill the wells to insure all wells have the same amount of DMSO. A 12.5 μL volume of the HMT enzyme, H3K27me3 peptide and oligonucleosome substrate in assay buffer was added to each well of the assay plate using a Multidrop Combi (ThermoFisher). Compounds were pre-incubated with the enzyme for 20 min, followed by initiation of the methyltransferase reaction by addition of 12.5 μL of ^3H SAM in assay buffer (final volume=25 μL). The final concentrations of compounds ranged from a top default concentration of 80 μM down to 0.16 μM in ten 2-fold dilution steps. Reactions were carried out for 60 minutes and quenched with 20 μL per well of 1.96 mM SAH, 50 mM Tris pH 8.5, 200 mM EDTA. Stopped reactions were transferred to SAV coated Flashplates (Perkin Elmer), incubated for 120 min, washed with a plate washer, and then read on the TopCount NXT (1.0 min/well) to measure the amount of methyl histone product formed during the reaction. The amount of methyl histone product was compared with the amount of product formed in the 0% and 100% inhibition control wells allowing the calculation of % Inhibition in the presence of the individual compounds at various concentrations. IC50's were computed using a 4 parameter fit non-linear curve fitting software package (XLFIT, part of the database package, ActivityBase (IDBS)) where the four parameters were IC50, Hill slope, pre-transitional baseline (0% INH), and post-transitional baseline (100% INH); with the latter two parameters being fixed to zero and 100%, respectively, by default.

[1] = system: H3K27me3 mark in Hela cells expressing wild type EZH2; test: H3K27me3 Alpha Hela Assay (AlphaLISA); format: cell-based; conditions: Homo sapiens, 72 hrs, read-out: H3K27me3_Alpha_HeLa (EC50)
Description: H3K27me3 Alpha Hela Assay (AlphaLISA). Ten different doses of each test compound (in a series of 3-fold dilutions) were plated in duplicate 384-well tissue culture treated plates (Catalog #781080; Greiner Bio One; Monroe, N.C.). Hela cells grown in culture were trypsinized and counted using a Countess® cell counter (Catalog # C10281; Life Technologies, Grand Island, N.Y.). Cell were diluted to 67,000 cells per mL in 10% DMEM (Catalog #10569-010 Life Technologies, Grand Island, N.Y.) and 15 μL (1,000 cells) were plated into each well using the Biotek MicroFlo™ Select Dispenser (BioTek Instruments, Inc. Vermont, USA),) of the 384-well plate. Plates were incubated at 37° C./5% CO2 for 72 hrs. One of the duplicate plates was processed for HeLa assay and the other for viability.
To the plate processed for AlphaLISA was added 5 μL per well Cell-Histone Lysis buffer (1×) (Catalog # AL009F1 Perkin Elmer; Waltham, Mass.) and the plate was incubated at RT for 30 minutes on a plate shaker with low speed (Model#4625-Q Thermo Scientific; Waltham, Mass.). Then, 10 μL per well Histone Extraction buffer (catalog # AL009F2; Perkin Elmer; Waltham, Mass.) was added and the plate further incubated at RT for 20 min on plate shaker with low speed. To each well was then added 10 μL per well of a 5× mix of anti-K27me3 acceptor beads plus Biotinylated anti-Histone H3 (C-ter) Antibody (diluted to 3 nM final) (Catalog #AL118 Perkin Elmer; Waltham, Mass.). Dilution of the acceptor beads and then anti-Histone H3 was with 1× Histone Detection buffer (Catalog # AL009F3 Perkin Elmer; Waltham, Mass.) which was produced diluted from the 10× stock provided. The plate was sealed with an aluminum plate sealer and incubated at 23° C. for 60 min. We then added 10 μL 5× solution of Streptavidin Donor beads (Catalog #6760002 Perkin Elmer; Waltham, Mass.) (20 μg/mL final in 1× Histone Detection Buffer), sealed the plate with Aluminum plate sealer and incubated at 23° C. for 30 min. The plates were then read using an EnVision-Alpha Reader (model #2104 Perkin Elmer; Waltham, Mass.).
Data from both assays was analyzed using Assay Assistant (Constellation Pharmaceuticals In-house product) and Activity Base (IDBS Ltd, Surrey, UK) template. Data files were imported to Assay Assistant and assay conditions were specified. A unique Analysis ID was created and the data files exported to Activity Base. An analysis template was created on Activity Base to measure dose-dependent inhibition of H3K27me3 mark and cell viability respectively. Readout of DMSO wells were used to normalize the data. Resulting curves were fitted using Activity base software Model 205 (IDBS Ltd, Surrey, UK). The data was checked for quality, validated and integrated in excel format using SARview (IDBS Ltd, Surrey, UK).

Y641N EZH2 = Y641N EZH2 (Homo sapiens, UniProt Q15910, Y641N); test: Assay for Y641N EZH2 (as the EZH2 assay, H3K27Me2 oligonucleosomes as substrate); format: biochemical; conditions: Y641N EZH2 mutant, reconstituted H3K27Me2 oligonucleosomes as substrate
Description: as §1, §2
Assay for Y641N EZH2 was performed as above using reconstituted H3K27Me2 oligonucleosomes as substrate.

Sequence of Y641N EZH2 (Q15910 whole entry Y641N): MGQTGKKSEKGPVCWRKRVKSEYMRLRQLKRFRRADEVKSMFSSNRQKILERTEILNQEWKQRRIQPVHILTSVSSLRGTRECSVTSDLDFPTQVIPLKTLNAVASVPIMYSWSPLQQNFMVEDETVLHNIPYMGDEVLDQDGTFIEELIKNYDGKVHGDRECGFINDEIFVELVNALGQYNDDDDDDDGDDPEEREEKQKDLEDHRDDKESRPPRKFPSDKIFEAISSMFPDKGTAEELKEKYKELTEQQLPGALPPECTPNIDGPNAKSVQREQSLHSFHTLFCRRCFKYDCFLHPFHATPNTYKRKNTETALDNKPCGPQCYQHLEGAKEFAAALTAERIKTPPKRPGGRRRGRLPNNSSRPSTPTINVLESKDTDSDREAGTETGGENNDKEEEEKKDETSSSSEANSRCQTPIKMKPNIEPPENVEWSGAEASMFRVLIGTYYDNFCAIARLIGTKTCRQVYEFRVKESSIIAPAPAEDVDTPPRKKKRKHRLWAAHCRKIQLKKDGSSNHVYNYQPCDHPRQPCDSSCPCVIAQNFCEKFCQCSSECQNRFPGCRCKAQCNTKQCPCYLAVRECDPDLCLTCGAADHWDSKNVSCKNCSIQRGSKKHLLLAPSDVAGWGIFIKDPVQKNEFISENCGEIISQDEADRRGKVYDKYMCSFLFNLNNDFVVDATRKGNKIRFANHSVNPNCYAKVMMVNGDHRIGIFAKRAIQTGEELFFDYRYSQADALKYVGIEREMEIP
Sequence of Y641N EZH2 (O75530 whole entry partner): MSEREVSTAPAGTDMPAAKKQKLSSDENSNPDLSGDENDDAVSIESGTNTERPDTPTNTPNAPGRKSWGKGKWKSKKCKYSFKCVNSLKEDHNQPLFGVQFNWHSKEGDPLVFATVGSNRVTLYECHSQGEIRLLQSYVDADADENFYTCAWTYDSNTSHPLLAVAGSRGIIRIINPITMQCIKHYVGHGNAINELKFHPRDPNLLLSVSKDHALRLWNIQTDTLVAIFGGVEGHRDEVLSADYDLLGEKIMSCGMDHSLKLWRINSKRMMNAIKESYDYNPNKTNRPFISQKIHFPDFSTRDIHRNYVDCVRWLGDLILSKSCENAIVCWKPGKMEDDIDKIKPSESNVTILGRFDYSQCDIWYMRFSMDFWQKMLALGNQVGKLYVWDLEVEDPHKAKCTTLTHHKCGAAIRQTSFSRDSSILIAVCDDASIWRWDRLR
Sequence of Y641N EZH2 (Q15022 whole entry partner): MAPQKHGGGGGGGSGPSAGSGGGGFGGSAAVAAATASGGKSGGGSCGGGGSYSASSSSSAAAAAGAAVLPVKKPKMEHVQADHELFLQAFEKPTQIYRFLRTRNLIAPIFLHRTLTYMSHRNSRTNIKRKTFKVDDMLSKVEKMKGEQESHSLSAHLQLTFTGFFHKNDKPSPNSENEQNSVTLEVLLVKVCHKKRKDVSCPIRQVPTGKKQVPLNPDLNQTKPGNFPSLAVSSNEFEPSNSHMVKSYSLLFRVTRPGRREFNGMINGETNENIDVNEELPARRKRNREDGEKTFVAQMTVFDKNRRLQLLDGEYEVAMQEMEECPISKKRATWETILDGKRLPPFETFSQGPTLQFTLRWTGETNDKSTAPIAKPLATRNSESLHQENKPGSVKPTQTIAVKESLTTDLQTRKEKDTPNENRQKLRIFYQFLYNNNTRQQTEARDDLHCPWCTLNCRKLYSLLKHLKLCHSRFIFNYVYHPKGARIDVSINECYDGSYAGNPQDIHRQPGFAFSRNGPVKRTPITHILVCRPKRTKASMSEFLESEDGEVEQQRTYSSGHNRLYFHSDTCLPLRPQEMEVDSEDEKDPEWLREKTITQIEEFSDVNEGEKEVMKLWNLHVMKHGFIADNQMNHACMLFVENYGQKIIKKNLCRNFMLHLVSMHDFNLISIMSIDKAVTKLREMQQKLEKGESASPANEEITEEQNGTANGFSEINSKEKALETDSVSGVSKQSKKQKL
Sequence of EZH2 (Q15910 whole entry): as the sequence (Q15910 whole entry Y641N) above, with N641Y counted along it
Sequence of EZH2 (O75530 whole entry partner): as the sequence (O75530 whole entry partner) above
Sequence of EZH2 (Q15022 whole entry partner): as the sequence (Q15022 whole entry partner) above

IC50 (EZH2)	EC50 [1]	IC50 (Y641N EZH2)	Compound
< 100 nM	< 400 nM	< 100 nM	COc1cc(C)[nH]c(=O)c1CNC(=O)c1c(C)c(C(C)C2CCN(C(=O)C(F)(F)F)CC2)n2ncccc12 (stereo not shown) [Compound 139, N-((4-methoxy-6-methyl-2-oxo-1,2-dihydropyridin-3-yl)methyl)-6-methyl-7-(1-(1-(2,2,2-trifluoroacetyl)piperidin-4-yl)ethyl)pyrrolo[1,2-b]pyridazine-5-carboxamide]
< 100 nM	< 400 nM	1000 to 10000 nM	COc1cc(C)[nH]c(=O)c1CNC(=O)c1c(C)c(C(C)C2CCN(CC(C)(F)F)CC2)n2ccncc12 (stereo not shown) [Compound 140, 6-(1-(1-(2,2-difluoropropyl)piperidin-4-yl)ethyl)-N-((4-methoxy-6-methyl-2-oxo-1,2-dihydropyridin-3-yl)methyl)-7-methylpyrrolo[1,2-a]pyrazine-8-carboxamide]
< 100 nM	< 400 nM	< 100 nM	COc1cc(C)[nH]c(=O)c1CNC(=O)c1c(Cl)c(C(C)C2CCN(CC(C)(C)O)CC2)n2ncccc12 (stereo not shown) [Compound 142, 6-chloro-7-(1-(1-(2-hydroxy-2-methylpropyl)piperidin-4-yl)ethyl)-N-((4-methoxy-6-methyl-2-oxo-1,2-dihydropyridin-3-yl)methyl)pyrrolo[1,2-b]pyridazine-5-carboxamide]
< 100 nM	< 400 nM		COc1cc(C)[nH]c(=O)c1CNC(=O)c1c(C)c(C(C)C2CCN(CC(C)(F)F)CC2)n2ncccc12 (stereo not shown) [Compound 143, 7-(1-(1-(2,2-difluoropropyl)piperidin-4-yl)ethyl)-N-((4-methoxy-6-methyl-2-oxo-1,2-dihydropyridin-3-yl)methyl)-6-methylpyrrolo[1,2-b]pyridazine-5-carboxamide]
< 100 nM	< 400 nM		COc1cc(C)[nH]c(=O)c1CNC(=O)c1c(C)c(C(C)C2CCN(CC(F)F)CC2)n2ncccc12 (stereo not shown) [Compound 145, 7-(1-(1-(2,2-difluoroethyl)piperidin-4-yl)ethyl)-N-((4-methoxy-6-methyl-2-oxo-1,2-dihydropyridin-3-yl)methyl)-6-methylpyrrolo[1,2-b]pyridazine-5-carboxamide]

More lines, now with the values behind:

Compound	IC50 (EZH2)	EC50 [1]	IC50 (Y641N EZH2)
Cc1ccc2c(C(=O)NCc3c(C)cc(C)[nH]c3=O)c(C)c(C(C)C3CCN(CC(C)(C)O)CC3)n2n1 (stereo not shown) [Compound 129, N-((4,6-dimethyl-2-oxo-1,2-dihydropyridin-3-yl)methyl)-7-(1-(1-(2-hydroxy-2-methylpropyl)piperidin-4-yl)ethyl)-2,6-dimethylpyrrolo[1,2-b]pyridazine-5-carboxamide]	< 100 nM	400 to 2000 nM	
COc1cc(C)[nH]c(=O)c1CNC(=O)c1c(C)c(C(C)N(C)C)n2ncccc12 (stereo not shown) [Compound 130, 7-(1-(dimethylamino)ethyl)-N-((4-methoxy-6-methyl-2-oxo-1,2-dihydropyridin-3-yl)methyl)-6-methylpyrrolo[1,2-b]pyridazine-5-carboxamide]	< 100 nM	2000 to 10000 nM	
COc1cc(C)[nH]c(=O)c1CNC(=O)c1c(Cl)c(C(C)C2CCOCC2)n2ncccc12 (stereo not shown) [Compound 132, 6-chloro-N-((4-methoxy-6-methyl-2-oxo-1,2-dihydropyridin-3-yl)methyl)-7-(1-(tetrahydro-2H-pyran-4-yl)ethyl)pyrrolo[1,2-b]pyridazine-5-carboxamide]	< 100 nM	< 400 nM	
COc1cc(C)[nH]c(=O)c1CNC(=O)c1c(C)c(C(C)C2CCN(CC(F)(F)F)CC2)n2ncccc12 (stereo not shown) [Compound 133, N-((4-methoxy-6-methyl-2-oxo-1,2-dihydropyridin-3-yl)methyl)-6-methyl-7-(1-(1-(2,2,2-trifluoroethyl)piperidin-4-yl)ethyl)pyrrolo[1,2-b]pyridazine-5-carboxamide]	< 100 nM	< 400 nM	< 100 nM
COc1cc(C)[nH]c(=O)c1CNC(=O)c1c(C)c(C(C)C2CCN(CCC(F)(F)F)CC2)n2ncccc12 (stereo not shown) [Compound 134, N-((4-methoxy-6-methyl-2-oxo-1,2-dihydropyridin-3-yl)methyl)-6-methyl-7-(1-(1-(3,3,3-trifluoropropyl)piperidin-4-yl)ethyl)pyrrolo[1,2-b]pyridazine-5-carboxamide]	< 100 nM	400 to 2000 nM	
COc1cc(C)[nH]c(=O)c1CNC(=O)c1c(C)c(C(C)C2CCN(C(=O)C(C)(F)F)CC2)n2ncccc12 (stereo not shown) [Compound 135, 7-(1-(1-(2,2-difluoropropanoyl)piperidin-4-yl)ethyl)-N-((4-methoxy-6-methyl-2-oxo-1,2-dihydropyridin-3-yl)methyl)-6-methylpyrrolo[1,2-b]pyridazine-5-carboxamide]	< 100 nM	< 400 nM	1000 to 10000 nM
COc1cc(C)[nH]c(=O)c1CNC(=O)c1c(C)c(C(C)C2CCN(C(=O)C(C)(C)F)CC2)n2ncccc12 (stereo not shown) [Compound 136, 7-(1-(1-(2-fluoro-2-methylpropanoyl)piperidin-4-yl)ethyl)-N-((4-methoxy-6-methyl-2-oxo-1,2-dihydropyridin-3-yl)methyl)-6-methylpyrrolo[1,2-b]pyridazine-5-carboxamide]	< 100 nM	< 400 nM	
COc1cc(C)[nH]c(=O)c1CNC(=O)c1c(C)c(C(C)C2CCN(C(=O)CC(F)(F)F)CC2)n2ncccc12 (stereo not shown) [Compound 137, N-((4-methoxy-6-methyl-2-oxo-1,2-dihydropyridin-3-yl)methyl)-6-methyl-7-(1-(1-(3,3,3-trifluoropropanoyl)piperidin-4-yl)ethyl)pyrrolo[1,2-b]pyridazine-5-carboxamide]	< 100 nM	< 400 nM	
COc1cc(C)[nH]c(=O)c1CNC(=O)c1c(C)c(C(C)C2CCN(C(=O)C(F)F)CC2)n2ncccc12 (stereo not shown) [Compound 138, 7-(1-(1-(2,2-difluoroacetyl)piperidin-4-yl)ethyl)-N-((4-methoxy-6-methyl-2-oxo-1,2-dihydropyridin-3-yl)methyl)-6-methylpyrrolo[1,2-b]pyridazine-5-carboxamide]	< 100 nM	< 400 nM	1000 to 10000 nM

— patent publication US9745305B2, “Modulators of methyl modifying enzymes, compositions and uses thereof” (Constellation Pharmaceuticals, Inc., priority 2013, dated 2017)
